Entries after “also recorded” stand apart in the source; their conditions may differ.
What was measured:
Mig6 [1] = experiment: Immunoblot analysis of Mig6 expression in SCC-R cells; assay type: cell-based, human; conditions: for expression of Mig6: AKI or U0126 10 or 20 μM, LY294002 10 or 25 μM, rapamycin 1 or 2 μM
Description: Antibodies against EGFR, phospho-tyrosine (P-Tyr-100), phospho-EGFR (Tyr1068), phospho-HER2/ErbB2 (Tyr1248), AKT, phospho-AKT (Ser473), p44/42 MAPK, (Erk1/2), phospho-p44/42 MAPK (Erk1/2) (Thr202/Tyr204), and PTEN were obtained from Cell Signaling Technology, Inc. (Beverly, Mass.). Monoclonal anti-P-Actin antibody was obtained from Sigma (St. Louis, Mo.). Polyclonal anti-Mig6 antibody was a generous gift from Dr. Ferby (15). […] Equal amounts of protein were mixed with Laemmli sample buffer, run on 4-12% NuPAGE gels and transferred to nitrocellulose membrane (Bio-Rad Laboratories, Hercules, Calif.). The membrane was probed with primary antibody followed by HRP-conjugated appropriate secondary antibodies (Santa Cruz Biotech, Santa Cruz, Calif.), and detected by enhanced chemiluminescence (ECL, GE Health Care, Piscataway, N.J.).

EGFR [2] = experiment: Immunoblot/densitometric analysis of phospho-EGFR/total EGFR in SCC-R cells; assay type: cell-based, human; conditions: inhibitor 24 hrs (25 μM LY294002, 20 μM AKI, 2 μM rapamycin, 20 μM U0126), then 10 ng/ml EGF 30 min
Description: (§1) Antibodies against EGFR, phospho-tyrosine (P-Tyr-100), phospho-EGFR (Tyr1068), phospho-HER2/ErbB2 (Tyr1248), AKT, phospho-AKT (Ser473), p44/42 MAPK, (Erk1/2), phospho-p44/42 MAPK (Erk1/2) (Thr202/Tyr204), and PTEN were obtained from Cell Signaling Technology, Inc. (Beverly, Mass.). Monoclonal anti-P-Actin antibody was obtained from Sigma (St. Louis, Mo.). Polyclonal anti-Mig6 antibody was a generous gift from Dr. Ferby (15). When appropriate, cells were cultured in serum free medium overnight, pretreated with the indicated inhibitors for 3 hrs or […], and the treated with 10 ng/ml EGF for 10 or 30 min. Equal amounts of protein were mixed with Laemmli sample buffer, run on 4-12% NuPAGE gels and transferred to nitrocellulose membrane (Bio-Rad Laboratories, Hercules, Calif.). The membrane was probed with primary antibody followed by HRP-conjugated appropriate secondary antibodies (Santa Cruz Biotech, Santa Cruz, Calif.), and detected by enhanced chemiluminescence (ECL, GE Health Care, Piscataway, N.J.).

Mig6 [3] = experiment: Immunoblot analysis of Mig6 expression in 358 cells; assay type: cell-based, human; conditions: 24 hrs
Description: as §1

SCC-S and SCC-R cells = experiment: Cell viability and drug sensitivity assay (Calcein AM), erlotinib-sensitive vs -resistant isogenic cells; assay type: cell-based, human; conditions: erlotinib 72 hrs, cell viability
Description: Drug resistant cell lines were generated via a process of slowly escalating exposure to erlotinib, as reported previously (16). SCC-S is used to designate the parental UM-SCCI cells exposed to DMSO, and SCC-R refers to the erlotinib resistant clone.
(§2) Cells were plated at a density of 3000/well in 96-well plates. The following day, cells were treated with 0, 0.01, 0.033, 0.1, 0.33, 1, or 3.3 μM erlotinib for an additional 72 hrs. Cell viability was subsequently assayed using Calcein AM (Invitrogen), Fluorescence signals generated as a result of Calcein AM cleavage by viable cells were read by a Molecular Devices plate reader (Sunnyvale, Calif.) using an excitation frequency of 480 nm, and an emission frequency of 535 nm.

EGFR [4] = experiment: Immunoblot of EGF-induced EGFR phosphorylation in bladder and lung cancer cell lines; assay type: cell-based, human; conditions: all bladder and lung cancer cell lines tested; 0.1 μM erlotinib 3 hrs before 10 ng/ml EGF
Description: as §1, with “Equal amounts of protein were mixed with Laemmli sample buffer, run on 4-12% NuPAGE gels and transferred to nitrocellulose membrane (Bio-Rad Laboratories, Hercules, Calif.).” left out

H358 cells = experiment: Cell viability of parental and TGF β-induced H358 cells; assay type: cell-based, human; conditions: TGF-β-induced mesenchymal-like cells vs parental
Description: as §2

Mig6 [5] = experiment: Immunoblot analysis of Mig6 expression in 358/TGFβ1-day 21 and 358/TGFβ3-day 21 cells; assay type: cell-based, human; conditions: 24 hrs
Description: as §1

BML-5 = experiment: Erlotinib treatment of directly xenografted lung tumors; assay type: in vivo, nude mice; conditions: BML-5 compared with BML-1, BML-7, BML-11
Description: (§3) The xenografts were generated and erlotinib treatment was performed as published previously (17, 18). Relative tumor growth inhibition (TGI) was calculated as the relative tumor growth of treated mice divided by relative tumor growth of control mice (T/C). The animals were maintained in accordance to guidelines of the American Association of Laboratory Animal Care and the research protocol was approved by the Johns Hopkins University Animal Use and Care Committee.

PANC410 = experiment: Erlotinib treatment of directly xenografted pancreatic tumors; assay type: in vivo, nude mice
Description: as §3

PANC420 = experiment: as above; assay type: in vivo, nude mice
Description: as §3

PANC140 = experiment: as above; assay type: in vivo, nude mice
Description: as §3

PANC294 = experiment: as above; assay type: in vivo, nude mice
Description: as §3

PANC215 = experiment: as above; assay type: in vivo, nude mice
Description: The xenografts were generated and erlotinib treatment was performed as published previously (17, 18). Relative tumor growth inhibition (TGI) was calculated as the relative tumor growth of treated mice divided by relative tumor growth of control mice (T/C).

[6] = 150 mg per day; cited from earlier work
serum proteins = conditions: cited from earlier work
tumors in Errfil−/− mice = conditions: cited from earlier work
[7] = system: tumors in control Errfil+/+ mice; conditions: cited from earlier work
NSCLC = conditions: patients randomized to gefinitib or placebo; cited from earlier work

N#CC(=C(/N)Sc1ccccc1N)/C(C#N)=C(\N)Sc1ccccc1N [U0126]
expression of Mig6 (Mig6 [1]; 24 hrs): decreased | ratio of phospho-EGFR to EGFR (EGFR [2]): increased | expression of Mig6 (Mig6 [3]): reduced

C#Cc1cccc(Nc2ncnc3cc(OCCOC)c(OCCOC)cc23)c1 [erlotinib]
IC50 of SCC-R cells relative to SCC-S cells (SCC-S and SCC-R cells): > 10 times | basal Mig6 expression (Mig6 [1]; 0.2 or 1 μM erlotinib, 24 hrs): only a slight decrease | EGF-induced Mig6 upregulation (Mig6 [1]; erlotinib pretreatment 30 min then 10 ng/ml EGF 24 hrs): completely abolish | ligand-induced EGFR phosphorylation (EGFR [4]): effectively block | resistance to erlotinib, cell viability (H358 cells): acquired increasing resistance | expression of Mig6 (Mig6 [3]): reduced | expression of Mig6 (Mig6 [5]): failed to suppress | response of lung xenograft to erlotinib (tumor growth) (BML-5): sensitive; also recorded: better response | erlotinib responsiveness of xenografted pancreatic tumor (PANC410): erlotinib-sensitive | erlotinib responsiveness of xenografted pancreatic tumor (PANC420): erlotinib-resistant | erlotinib responsiveness of xenografted pancreatic tumor (PANC140): erlotinib-resistant | erlotinib responsiveness of xenografted pancreatic tumor (PANC294): erlotinib-resistant | erlotinib responsiveness of xenografted pancreatic tumor (PANC215): erlotinib-resistant | steady-state serum concentration, median [6]: 2.9 µM | bound to serum proteins (serum proteins): 90%

COc1cc2ncnc(Nc3ccc(F)c(Cl)c3)c2cc1OCCCN1CCOCC1 [gefitinib]
sensitivity of carcinogen-induced tumors to gefitinib (tumors in Errfil−/− mice; Errfil−/− mice): unusually sensitive | tumor regression (tumors in Errfil−/− mice; in 1 week following initiation of gefitinib treatment): more than 50% | tumor response to gefitinib [7]: did not respond | overall difference of PFS vs placebo (NSCLC): 7 days

O=c1[nH]c2ccccc2n1C1CCN(Cc2ccc(-c3nc4cc5[nH]cnc5cc4nc3-c3ccccc3)cc2)CC1 [AKI]
expression of Mig6 (Mig6 [1]; 24 hrs): decreased | ratio of phospho-EGFR to EGFR (EGFR [2]): increased
